Test results as given in ChEMBL document CHEMBL1777782, “Indole 5-carboxamide Thumb Pocket I inhibitors of HCV NS5B polymerase with nanomolar potency in cell-based subgenomic replicons (part 2): central amino acid linker and right-hand-side SAR studies” (Bioorg Med Chem Lett, 2011).
pEC50, pIC50: −log10 of the molar value. In brackets after ≈: the same amount, converted by molar mass.

Experiments:
Hepatitis C virus = experiment: Antiviral activity against Hepatitis C virus genotype 1b infected in human Huh-7 cells assessed as inhibition of viral replication after 72 hrs; format: functional, organism-based, Hepacivirus hominis; details: Huh-7, 72 h
[1] = Inhibition of HCV 1b NS5B RNA dependent RNA polymerase by scintillation proximity assay; parameters: species or system Hepacivirus hominis
physchem = details: phosphate buffer, pH 7.2
[2] = Selectivity ratio for polio virus RNA-dependent RNA polymerase to HCV 1b NS5B RNA dependent RNA polymerase
[3] = Half life in human liver microsomes at 10 uM
[4] = Permeability across apical to basolateral side in human Caco2 cells; details: Caco-2
[5] = Selectivity ratio for mammalian DNA-dependent RNA polymerase II to HCV 1b NS5B RNA dependent RNA polymerase

Structure (SMILES) | pEC50 (Hepatitis C virus) | pIC50 [1] | solubility thermodynamic at 24 h (physchem) | Ratio [2] | half-life at 10 µM ([3]; liver microsomes) | Papp A→B [4] | Ratio [5] | half-life at 10 µM ([3]; microsomes)
CC(=O)N1CCCC(NC(=O)c2ccc3c(C4CCCCC4)c(-c4ccccn4)n(C)c3c2)(C(=O)Nc2ccc(/C=C/C(=O)O)cc2)C1 (racemic) | 6.64 | 6.64 | 24 µg/mL (≈ 37 µM) | > 150 | 256 min | 5.5 ×10⁻⁶ cm/s | > 150 | 
Cn1c(-c2ccccn2)c(C2CCCCC2)c2ccc(C(=O)NC(C)(C)C(=O)Nc3ccc(NC(=O)C(N)=O)cc3)cc21 | 6.86 | 6.91 | 1 µg/mL (≈ 1.72 µM) | > 150 | 25 min | 12.9 ×10⁻⁶ cm/s | > 150 | 
Cc1c(C(=O)O)sc2ccc(NC(=O)C3(NC(=O)c4ccc5c(C6CCCCC6)c(-c6ccccn6)n(C)c5c4)CCN(C)CC3)cc12 | 7.24 | 7.57 | 1 µg/mL (≈ 1.51 µM) | > 150 | 185 min | 0.8 ×10⁻⁶ cm/s | > 150 | 
Cn1c(-c2ccccn2)c(C2CCCCC2)c2ccc(C(=O)NC(C)(C)C(=O)Nc3ccc(-c4nc(C(=O)O)cs4)cc3)cc21 | 6.38 | 6.81 | 662 µg/mL (≈ 1060 µM) | > 150 | 55 min | < 0.1 ×10⁻⁶ cm/s | > 150 | 
Cc1c(C(N)=O)sc2ccc(NC(=O)C3(NC(=O)c4ccc5c(C6CCCCC6)c(-c6ccccn6)n(C)c5c4)CCC3)cc12 | 7.12 | 7.07 |  | > 150 | 71 min |  | > 150 | 
CN1CCC(NC(=O)c2ccc3c(C4CCCCC4)c(-c4ccccn4)n(C)c3c2)(C(=O)Nc2ccc3sc(C(=O)O)cc3c2)CC1 | 6.66 | 7.77 |  | > 150 |  |  | > 150 | 
CC(=O)N1CC[C@@](NC(=O)c2ccc3c(C4CCCCC4)c(-c4ccccn4)n(C)c3c2)(C(=O)Nc2ccc(/C=C/C(=O)O)cc2)C1 | 6.67 | 7.62 |  | > 150 |  |  | > 150 | 
Cn1c(-c2ccccn2)c(C2CCCCC2)c2ccc(C(=O)NC3(C(=O)Nc4ccc(S(N)(=O)=O)cc4)CCC3)cc21 | 6.46 | 6.51 | < 0.1 µg/mL | > 150 | 15 min |  | > 150 | 
Cn1c(C(N)=O)cc2cc(NC(=O)C(C)(C)NC(=O)c3ccc4c(C5CCCCC5)c(-c5ccccn5)n(C)c4c3)ccc21 | 7.01 | 6.78 | < 0.1 µg/mL | > 150 | 21 min |  | > 150 | 
CCN1CC[C@@](NC(=O)c2ccc3c(C4CCCCC4)c(-c4ccccn4)n(C)c3c2)(C(=O)Nc2ccc(/C=C/C(=O)O)cc2)C1 | 7.30 | 7.64 |  | > 150 | 61 min | 5.6 ×10⁻⁶ cm/s | > 150 | 
Cn1c(-c2ccccn2)c(C2CCCCC2)c2ccc(C(=O)N[C@@]3(C(=O)Nc4ccc(-c5cncnc5)cc4)CCNC3)cc21 | 6.89 | 7.19 | 9 µg/mL (≈ 15 µM) | > 150 | 64 min | < 0.1 ×10⁻⁶ cm/s | > 150 | 
Cn1c(-c2ccccn2)c(C2CCCCC2)c2ccc(C(=O)NC3(C(=O)Nc4ccc(-c5cnc(N)nc5)cc4)CCC3)cc21 | 6.74 | 6.13 | 0.9 µg/mL (≈ 1.5 µM) | > 150 |  |  | > 150 | 
Cn1c(-c2ccccn2)c(C2CCCCC2)c2ccc(C(=O)NC(C)(C)C(=O)Nc3ccc(-c4ccc(C(=O)O)o4)cc3)cc21 | 6.84 | 6.82 | > 564 µg/mL | > 150 | 43 min | 0.2 ×10⁻⁶ cm/s | > 150 | 
Cn1c(-c2ccccn2)c(C2CCCCC2)c2ccc(C(=O)NC3(C(=O)Nc4ccc(/C=C/C(=O)O)cc4)CCCCC3)cc21 | 6.89 | 6.71 | 5 µg/mL (≈ 8.27 µM) | > 150 | 61 min |  | > 150 | 
Cn1c(C(=O)O)cc2cc(NC(=O)C(C)(C)NC(=O)c3ccc4c(C5CCCCC5)c(-c5ccccn5)n(C)c4c3)ccc21 | 6.84 | 7.12 | 945 µg/mL (≈ 1600 µM) | > 150 | 36 min | 0.7 ×10⁻⁶ cm/s | > 150 | 
Cn1c(-c2ccccn2)c(C2CCCCC2)c2ccc(C(=O)N[C@]3(C(=O)Nc4ccc(/C=C/C(=O)O)cc4)CCCNC3)cc21 | 6.66 | 7.40 |  | > 150 |  |  | > 150 | 
Cc1c(C(=O)O)sc2ccc(NC(=O)[C@]3(NC(=O)c4ccc5c(C6CCCCC6)c(-c6ccccn6)n(C)c5c4)CCCNC3)cc12 | 7.22 | 7.46 |  |  |  |  |  | 93 min
Cn1c(-c2ccccn2)c(C2CCCCC2)c2ccc(C(=O)NC(C)(C)C(=O)Nc3ccc(-c4ccc(C(N)=O)o4)cc3)cc21 | 7.02 | 6.48 | < 0.1 µg/mL | > 150 | 19 min |  | > 150 | 
Cn1c(-c2ccccn2)c(C2CCCCC2)c2ccc(C(=O)NC(C)(C)C(=O)Nc3ccc(-c4nc(C(N)=O)cs4)cc3)cc21 | 6.82 | 6.50 | < 0.1 µg/mL | > 150 | 16 min |  | > 150 | 
CN1CC[C@](NC(=O)c2ccc3c(C4CCCCC4)c(-c4ccccn4)n(C)c3c2)(C(=O)Nc2ccc(/C=C/C(=O)O)cc2)C1 | 7.11 | 7.18 | 20 µg/mL (≈ 33 µM) | > 150 |  | 7.8 ×10⁻⁶ cm/s | > 150 | 46 min
CC(C)(NC(=O)c1ccc2c(c1)nc(-c1ccoc1)n2C1CCCCC1)C(=O)Nc1ccc(/C=C/C(=O)O)cc1 |  | 7.40 |  |  |  |  |  | 
Cn1c(-c2ccccn2)c(C2CCCCC2)c2ccc(C(=O)NC(C)(C)C(=O)Nc3ccc(NC(=O)C(=O)O)cc3)cc21 | 5.60 | 7.47 |  | > 150 |  |  | > 150 | 
Cn1c(-c2ccccn2)c(C2CCCCC2)c2ccc(C(=O)N[C@@]3(C(=O)Nc4ccc(/C=C/C(=O)O)cc4)CCNC3)cc21 | 7.08 | 7.64 | 10 µg/mL (≈ 16.9 µM) | > 150 | > 300 min | 0.5 ×10⁻⁶ cm/s | > 150 | 
CN1CCCC(NC(=O)c2ccc3c(C4CCCCC4)c(-c4ccccn4)n(C)c3c2)(C(=O)Nc2ccc(/C=C/C(=O)O)cc2)C1 (racemic) | 7.18 | 7.37 |  | > 150 |  |  | > 150 | 
Cn1c(-c2ccccn2)c(C2CCCCC2)c2ccc(C(=O)N[C@]3(C(=O)Nc4ccc(/C=C/C(=O)O)cc4)CCNC3)cc21 | 6.71 | 7.26 | 19 µg/mL (≈ 32.1 µM) | > 150 | 191 min | 0.1 ×10⁻⁶ cm/s | > 150 | 
Cn1c(C(=O)O)cc2cc(NC(=O)[C@]3(NC(=O)c4ccc5c(C6CCCCC6)c(-c6ccccn6)n(C)c5c4)CCCNC3)ccc21 | 6.61 | 7.36 | 14 µg/mL (≈ 22.1 µM) | > 150 | 28 min | < 0.1 ×10⁻⁶ cm/s | > 150 | 
Cc1c(C(=O)O)sc2ccc(NC(=O)C(C)(C)NC(=O)c3ccc4c(C5CCCCC5)c(-c5ccccn5)n(C)c4c3)cc12 | 7.34 | 7.46 | 202 µg/mL (≈ 332 µM) | > 150 | 34 min | 0.8 ×10⁻⁶ cm/s | > 150 | 
Cn1c(-c2ccccn2)c(C2CCCCC2)c2ccc(C(=O)NC3(C(=O)Nc4ccc(/C=C/C(=O)O)cc4)CCNCC3)cc21 | 5.70 | 7.89 |  | > 150 |  |  | > 150 | 
